Laboratory results reported in patent publication US9751874B2, “Hydroxy containing FXR (NR1H4) modulating compounds” (Gilead Sciences, Inc., priority 2014, dated 2017).

What was measured:
[1] = target: T1, human FXR alpha ligand binding domain (Homo sapiens, UniProt Q96RI1); experiment: FRET activity assay (ligand mediated cofactor peptide interaction, LANCE); format: biochemical; settings: GST-FXR-LBD / biotinylated SRC-1 peptide (676-700), read-out: F EC50
T1 construct: made in house; host or cells: E. coli BL21(DE3), vector pDEST15
T1 sequence (Q96RI1 187-472 isoform Q96RI1-2): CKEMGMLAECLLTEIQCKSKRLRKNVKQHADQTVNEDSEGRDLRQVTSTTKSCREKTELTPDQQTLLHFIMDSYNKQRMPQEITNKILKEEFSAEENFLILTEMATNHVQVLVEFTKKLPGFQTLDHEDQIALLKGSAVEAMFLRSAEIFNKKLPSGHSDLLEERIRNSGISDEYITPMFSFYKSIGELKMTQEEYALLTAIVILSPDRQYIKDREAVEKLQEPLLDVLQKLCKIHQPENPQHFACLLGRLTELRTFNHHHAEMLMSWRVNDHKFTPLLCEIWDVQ
Method in brief: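 GST-tagged FXR LBD (aa 187–472, E. coli-expressed) at 20–60 ng/well with 200–600 nM biotinylated SRC-1 peptide (676–700), streptavidin-APC and Eu anti-GST in Tris pH 7.5 buffer, 1% DMSO, equilibrated 1 h dark at room temperature. TR-FRET read as 665/615 nm ratio; agonists raise signal above basal.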

[2] = target: T2, FXR ligand binding domain (Homo sapiens, UniProt Q96RI1); experiment: Mammalian One Hybrid (M1H) assay, Gal4 promoter driven transactivation in HEK293 cells; format: cell-based; settings: Gal4-FXR-LBD luciferase reporter, 16 h
T2 construct: expressed in transfected cells; host or cells: HEK293 cells, transiently transfected with pCMV-BD-FXR-LBD, pFR-Luc and pRL-CMV
T2 sequence (Q96RI1 187-472 isoform Q96RI1-2): T1 sequence (Q96RI1 187-472 isoform Q96RI1-2)
Method in brief: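 HEK293 cells were transiently co-transfected with Gal4-DBD fused to the human FXR LBD (aa 187-472, NM_005123), a 5×GAL4-site firefly luciferase reporter and CMV-Renilla control. Compounds were added 2-4 h post-transfection (vehicle ≤0.1%) in charcoal/dextran-stripped FBS medium for 16 h. Firefly and Renilla luciferase were read sequentially, in triplicate.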

SMILES | EC50 [1] [nM] | EC50 [2] [nM]
O[C@]1(c2nc3c(F)cc(-c4nnn[nH]4)cc3s2)CC[C@H](OCc2c(-c3c(Cl)cccc3Cl)noc2C2CC2)CC1 [Example 21, (1s,4s)-4-((5-Cyclopropyl-3-(2,6-dichlorophenyl)isoxazol-4-yl)methoxy)-1-(4-fluoro-6-(1H-tetrazol-5-yl)benzo[d]thiazol-2-yl)cyclohexanol] | 64 | 1700
O=C(O)c1ccc([C@]2(O)CC[C@@H](OCc3c(-c4c(Cl)cccc4Cl)noc3C3CC3)CC2)c(F)c1 [Example 11-5, 4-((1s,4s)-4-((5-Cyclopropyl-3-(2,6-dichlorophenyl)isoxazol-4-yl)methoxy)-1-hydroxycyclohexyl)-3-fluorobenzoic acid] | 60 | 94
O=C(O)c1cc(F)c2nc([C@]3(O)CC[C@@H](OCc4c(-c5ccccc5OC(F)F)noc4C4CC4)CC3)sc2c1 [Example 11-7, 2-((1s,4s)-4-((5-Cyclopropyl-3-(2-(difluoromethoxy)phenyl)isoxazol-4-yl)methoxy)-1-hydroxycyclohexyl)-4-fluorobenzo[d]thiazole-6-carboxylic acid] | 150 | 1300
O[C@@]1(c2nc3ccc(Br)cc3s2)[C@@H]2CC[C@H]1C[C@H](OCc1c(-c3c(Cl)cccc3Cl)noc1C1CC1)C2 [Example 15-1, (1R,3s,5S,8r)-8-(6-Bromobenzo[d]thiazol-2-yl)-3-((5-cyclopropyl-3-(2,6-dichlorophenyl)isoxazol-4-yl)methoxy)bicyclo[3.2.1]octan-8-ol] | 37 | 77
CC1(C)C[C@@H](OCc2c(-c3c(Cl)cccc3Cl)noc2C2CC2)CC[C@]1(O)c1nc2c(F)cc(C(=O)O)cc2s1 (racemic) [Example 11-32, 2-((1R,4S)-4-((5-Cyclopropyl-3-(2,6-dichlorophenyl)isoxazol-4-yl)methoxy)-1-hydroxy-2,2-dimethylcyclohexyl)-4-fluorobenzo[d]thiazole-6-carboxylic acid] | 120 | 23
O=C(O)c1cc(F)c2nc([C@]3(O)[C@@H]4CC[C@H]3C[C@H](OCc3c(C5CC5)cnn3-c3c(Cl)cccc3Cl)C4)sc2c1 [Example 47, 2-((1R,3s,5S,8r)-3-((4-Cyclopropyl-1-(2,6-dichlorophenyl)-1H-pyrazol-5-yl)methoxy)-8-hydroxybicyclo[3.2.1]octan-8-yl)-4-fluorobenzo[d]thiazole-6-carboxylic acid] | 1.1 | 7.9
O=C(O)c1ccc2nc([C@]3(O)[C@@H]4CC[C@H]3C[C@@H](OCc3c(-c5c(Cl)cccc5Cl)noc3C3CC3)C4)sc2c1 [Example 11-23, 2-((1R,3r,5S,8r)-3-((5-Cyclopropyl-3-(2,6-dichlorophenyl)isoxazol-4-yl)methoxy)-8-hydroxybicyclo[3.2.1]octan-8-yl)benzo[d]thiazole-6-carboxylic acid] | 41 | 18
O=C(O)c1cc(F)c2nc(C3(O)C[C@H]4CC[C@@H](C3)C4OCc3c(-c4c(Cl)cccc4Cl)noc3C3CC3)sc2c1 (single isomer, unassigned) [Example 11-54] | 810 | 390
Cc1cccc(C)c1-c1noc(C2CC2)c1CO[C@H]1CC[C@](O)(c2nc3ccc(C(=O)O)cc3s2)CC1 [Example 11-12, 2-((1s,4s)-4-((5-Cyclopropyl-3-(2,6-dimethylphenyl)isoxazol-4-yl)methoxy)-1-hydroxycyclohexyl)benzo[d]thiazole-6-carboxylic acid] | 360 | 430
COCC1(OCc2c(-c3c(Cl)cccc3Cl)noc2C2CC2)C[C@H]2CC[C@@H](C1)[C@]2(O)c1nc2c(F)cc(C(=O)O)cc2s1 (single isomer, unassigned) [Example 11-41] | 190 | 320
O=C(O)c1ccc2nc(C3(O)CC4(CC(OCc5c(-c6c(Cl)cccc6Cl)noc5C5CC5)C4)C3)sc2c1 (single isomer, unassigned) [Example 11-4a, 2-(6-((5-Cyclopropyl-3-(2,6-dichlorophenyl)isoxazol-4-yl)methoxy)-2-hydroxyspiro[3.3]heptan-2-yl)benzo[d]thiazole-6-carboxylic acid] | 56 | 300
O=C(O)c1ccc2nc([C@]3(O)CC[C@@H](OCc4c(-c5c(Cl)cccc5Cl)noc4C4CC4)CC3)sc2c1F [Example 14-1, 2-((1s,4s)-4-((5-Cyclopropyl-3-(2,6-dichlorophenyl)isoxazol-4-yl)methoxy)-1-hydroxycyclohexyl)-7-fluorobenzo[d]thiazole-6-carboxylic acid] | 25 | 550
Cc1cccc(C)c1OCc1noc(C2CC2)c1CO[C@@H]1C[C@H]2CC[C@@H](C1)[C@]2(O)c1nc2c(F)cc(C(=O)O)cc2s1 [Example 11-50, 2-((1R,3s,5S,8r)-3-((5-Cyclopropyl-3-((2,6-dimethylphenoxy)methyl)isoxazol-4-yl)methoxy)-8-hydroxybicyclo[3.2.1]octan-8-yl)-4-fluorobenzo[d]thiazole-6-carboxylic acid] | 82 | 6.4
O=C(O)c1cccc([C@]2(O)[C@@H]3CC[C@H]2C[C@H](OCc2c(-c4c(Cl)cccc4Cl)noc2C2CC2)C3)c1 [Example 11-25, 3-((1R,3s,5S,8r)-3-((5-Cyclopropyl-3-(2,6-dichlorophenyl)isoxazol-4-yl)methoxy)-8-hydroxybicyclo[3.2.1]octan-8-yl)benzoic acid] | 79 | 430
O=C(O)c1cc(F)c2nc([C@]3(O)CC4CC3CC4OCc3c(-c4c(Cl)cccc4Cl)noc3C3CC3)sc2c1 (stereo partly drawn) [Example 11-49, 2-((1R,2S,4R)-5-((5-Cyclopropyl-3-(2,6-dichlorophenyl)isoxazol-4-yl)methoxy)-2-hydroxybicyclo[2.2.1]heptan-2-yl)-4-fluorobenzo[d]thiazole-6-carboxylic acid] | 28 | 93
O=C(O)c1ccc2nc(C3(O)CCC(OCc4c(-c5c(Cl)cccc5Cl)noc4C4CC4)C3)sc2c1 (centres unmarked) [Example 11-57, 2-(3-((5-Cyclopropyl-3-(2,6-dichlorophenyl)isoxazol-4-yl)methoxy)-1-hydroxy-cyclopentyl)benzo[d]thiazole-6-carboxylic acid] | 31 | 29
Cc1onc(-c2c(Cl)cccc2Cl)c1CO[C@@H]1C[C@H]2CC[C@@H](C1)[C@]2(O)c1nc2ccc(C(=O)O)cc2s1 [Example 11-37, 2-((1R,3s,5S,8r)-3-((3-(2,6-Dichlorophenyl)-5-methylisoxazol-4-yl)methoxy)-8-hydroxybicyclo[3.2.1]octan-8-yl)benzo[d]thiazole-6-carboxylic acid] | 8.8 | 43
O[C@@]1(c2nc3ccc(CN4CCOCC4)cc3s2)[C@@H]2CC[C@H]1C[C@H](OCc1c(-c3c(Cl)cccc3Cl)noc1C1CC1)C2 [Example 43, (1R,3s,5S,8r)-3-((5-Cyclopropyl-3-(2,6-dichlorophenyl)isoxazol-4-yl)methoxy)-8-(6-(morpholinomethyl)benzo[d]thiazol-2-yl)bicyclo[3.2.1]octan-8-ol] | 15 | 15
O=C(O)c1ccc2nc([C@]3(O)CC[C@@H](OCc4c(C5CC5)cnn4-c4c(Cl)cccc4Cl)CC3)sc2c1 [Example 11-13, 2-((1s,4s)-4-((4-Cyclopropyl-1-(2,6-dichlorophenyl)-1H-pyrazol-5-yl)methoxy)-1-hydroxycyclohexyl)benzo[d]thiazole-6-carboxylic acid] | 110 | 440
